Test results taken from ChEMBL document CHEMBL1201862, “PubChem BioAssay data set” (2004).
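A five-concentration, 48-hour dose response in 96-well plates underlies each endpoint, interpolated linearly between surrounding concentrations. Abbreviation: GI50, concentration required for 50% inhibition of growth.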 The source made the active and inactive calls. Cut-off read from the data, not from the text of the source: active = GI50 up to about 1.1 µM and inactive = higher.

Legend:
Experiment in all cases: DTP human tumour cell line panel, 48 h
PC-3 = test system: PC-3
HCT-15 = test system: HCT-15
NCI-H23 = test system: NCI-H23
786-0 = test system: 786-0
ACHN = test system: ACHN
BT-549 = test system: BT-549
MCF7 = test system: MCF7
HCC 2998 = test system: HCC 2998
MDA-MB-231 = test system: MDA-MB-231
CCRF-CEM = test system: CCRF-CEM
UACC-257 = test system: UACC-257
NCI-H460 = test system: NCI-H460
OVCAR-3 = test system: OVCAR-3
SF-268 = test system: SF-268
MDA-N = test system: MDA-N
SF-539 = test system: SF-539
HOP-62 = test system: HOP-62
NCI-H522 = test system: NCI-H522
SK-MEL-5 = test system: SK-MEL-5
SNB-19 = test system: SNB-19
KM12 = test system: KM12
A498 = test system: A498
T47D = test system: T47D
MDA-MB-435 = test system: MDA-MB-435
LOX IMVI = test system: LOX IMVI
COLO 205 = test system: COLO 205
SK-OV-3 = test system: SK-OV-3
DU-145 = test system: DU-145
Malme-3M = test system: Malme-3M
OVCAR-4 = test system: OVCAR-4
UACC-62 = test system: UACC-62
OVCAR-8 = test system: OVCAR-8
K562 = test system: K562
CAKI-1 = test system: CAKI-1
Hs-578T = test system: Hs-578T
A549 = test system: A549
SK-MEL-28 = test system: SK-MEL-28
HOP-92 = test system: HOP-92
HCT-116 = test system: HCT-116
M14 = test system: M14
NCI/ADR-RES = test system: NCI/ADR-RES
TK-10 = test system: TK-10
SW-620 = test system: SW-620
NCI-H226 = test system: NCI-H226
OVCAR-5 = test system: OVCAR-5
RXF 393 = test system: RXF 393
SN12C = test system: SN12C
U-251 = test system: U-251
HT-29 = test system: HT-29
SNB-75 = test system: SNB-75
HL-60 = test system: HL-60
SF-295 = test system: SF-295
EKVX = test system: EKVX
SK-MEL-2 = test system: SK-MEL-2
RPMI-8226 = test system: RPMI-8226
MOLT-4 = test system: MOLT-4
IGROV-1 = test system: IGROV-1
UO-31 = test system: UO-31
SR = test system: SR

Compound: COc1ccc2nc3n(c2c1)CCc1cc(OC)c(OC)cc1-3
- GI50 (PC-3): 39.4 µM (inactive)
- GI50 (HCT-15): 33.5 µM
- GI50 (NCI-H23): 40.1 µM (inactive)
- GI50 (786-0): 49.8 µM (inactive)
- GI50 (ACHN): 81.5 µM (inactive)
- GI50 (BT-549): 30 µM (inactive)
- GI50 (MCF7): 42.5 µM (inactive)
- GI50 (HCC 2998): 26 µM (inactive)
- GI50 (MDA-MB-231): > 100 µM (inactive)
- GI50 (CCRF-CEM): 49.1 µM (inactive)
- GI50 (UACC-257): 55 µM (inactive)
- GI50 (NCI-H460): 50.5 µM (inactive)
- GI50 (OVCAR-3): 46.7 µM (inactive)
- GI50 (SF-268): > 100 µM (inactive)
- GI50 (MDA-N): 44 µM (inactive)
- GI50 (SF-539): 88.9 µM (inactive)
- GI50 (HOP-62): 58.2 µM (inactive)
- GI50 (NCI-H522): 32.2 µM (inactive)
- GI50 (SK-MEL-5): 18.7 µM (inactive)
- GI50 (SNB-19): 99.5 µM (inactive)
- GI50 (KM12): 30 µM (inactive)
- GI50 (A498): 68.7 µM (inactive)
- GI50 (T47D): 34.6 µM (inactive)
- GI50 (MDA-MB-435): 34.5 µM (inactive)
- GI50 (LOX IMVI): 45.8 µM (inactive)
- GI50 (COLO 205): 26.1 µM (inactive)
- GI50 (SK-OV-3): > 100 µM (inactive)
- GI50 (DU-145): 83.8 µM (inactive)
- GI50 (Malme-3M): 91 µM (inactive)
- GI50 (OVCAR-4): 34.8 µM (inactive)
- GI50 (UACC-62): 32.3 µM (inactive)
- GI50 (OVCAR-8): 41.6 µM (inactive)
- GI50 (K562): 37.9 µM (inactive)
- GI50 (CAKI-1): 42.4 µM (inactive)
- GI50 (Hs-578T): 85.7 µM (inactive)
- GI50 (A549): 44.5 µM (inactive)
- GI50 (SK-MEL-28): 78 µM (inactive)
- GI50 (HOP-92): 56 µM (inactive)
- GI50 (HCT-116): 47.8 µM (inactive)
- GI50 (M14): 39.9 µM (inactive)
- GI50 (NCI/ADR-RES): 45.2 µM (inactive)
- GI50 (TK-10): 86.3 µM (inactive)
- GI50 (SW-620): 71.3 µM (inactive)
- GI50 (NCI-H226): 54.3 µM (inactive)
- GI50 (OVCAR-5): > 100 µM (inactive)
- GI50 (RXF 393): > 100 µM (inactive)
- GI50 (SN12C): 63.1 µM (inactive)
- GI50 (U-251): 60.8 µM (inactive)
- GI50 (HT-29): 26.7 µM (inactive)
- GI50 (SNB-75): 40.7 µM (inactive)
- GI50 (HL-60): 44.6 µM (inactive)
- GI50 (SF-295): 50.9 µM (inactive)
- GI50 (EKVX): 42.4 µM (inactive)
- GI50 (SK-MEL-2): > 100 µM (inactive)

Compound: CC(=O)c1ccc(NCN2C(=O)c3ccccc3C2=O)cc1
- GI50 (PC-3): > 100 µM (inactive)
- GI50 (HCT-15): > 100 µM
- GI50 (NCI-H23): > 100 µM (inactive)
- GI50 (786-0): > 100 µM (inactive)
- GI50 (ACHN): > 100 µM (inactive)
- GI50 (BT-549): > 100 µM (inactive)
- GI50 (MCF7): > 100 µM (inactive)
- GI50 (HCC 2998): > 100 µM (inactive)
- GI50 (MDA-MB-231): > 100 µM (inactive)
- GI50 (CCRF-CEM): > 100 µM (inactive)
- GI50 (UACC-257): > 100 µM (inactive)
- GI50 (NCI-H460): > 100 µM (inactive)
- GI50 (OVCAR-3): > 100 µM (inactive)
- GI50 (SF-268): > 100 µM (inactive)
- GI50 (MDA-N): > 100 µM (inactive)
- GI50 (RPMI-8226): 66.5 µM (inactive)
- GI50 (SF-539): > 100 µM (inactive)
- GI50 (HOP-62): > 100 µM (inactive)
- GI50 (NCI-H522): 97.5 µM (inactive)
- GI50 (SK-MEL-5): > 100 µM (inactive)
- GI50 (SNB-19): > 100 µM (inactive)
- GI50 (KM12): > 100 µM (inactive)
- GI50 (A498): > 100 µM (inactive)
- GI50 (T47D): > 100 µM (inactive)
- GI50 (MDA-MB-435): > 100 µM (inactive)
- GI50 (MOLT-4): > 100 µM (inactive)
- GI50 (LOX IMVI): > 100 µM (inactive)
- GI50 (COLO 205): > 100 µM (inactive)
- GI50 (SK-OV-3): > 100 µM (inactive)
- GI50 (DU-145): > 100 µM (inactive)
- GI50 (Malme-3M): > 100 µM (inactive)
- GI50 (OVCAR-4): > 100 µM (inactive)
- GI50 (UACC-62): > 100 µM (inactive)
- GI50 (OVCAR-8): > 100 µM (inactive)
- GI50 (K562): > 100 µM (inactive)
- GI50 (CAKI-1): > 100 µM (inactive)
- GI50 (Hs-578T): > 100 µM (inactive)
- GI50 (A549): > 100 µM (inactive)
- GI50 (SK-MEL-28): > 100 µM (inactive)
- GI50 (HOP-92): > 100 µM (inactive)
- GI50 (HCT-116): > 100 µM (inactive)
- GI50 (M14): > 100 µM (inactive)
- GI50 (NCI/ADR-RES): > 100 µM (inactive)
- GI50 (TK-10): > 100 µM (inactive)
- GI50 (SW-620): > 100 µM (inactive)
- GI50 (OVCAR-5): > 100 µM (inactive)
- GI50 (RXF 393): > 100 µM (inactive)
- GI50 (SN12C): > 100 µM (inactive)
- GI50 (U-251): > 100 µM (inactive)
- GI50 (HT-29): > 100 µM (inactive)
- GI50 (IGROV-1): > 100 µM (inactive)
- GI50 (SNB-75): 30.5 µM (inactive)
- GI50 (HL-60): 36.9 µM (inactive)
- GI50 (UO-31): > 100 µM (inactive)
- GI50 (SF-295): > 100 µM (inactive)
- GI50 (EKVX): > 100 µM (inactive)
- GI50 (SK-MEL-2): > 100 µM (inactive)

Compound: NC(CCCCCP(=O)(O)O)C(=O)O (centres undefined) [AP-7]
- GI50 (PC-3): > 100 µM (inactive)
- GI50 (HCT-15): > 100 µM
- GI50 (NCI-H23): > 100 µM (inactive)
- GI50 (ACHN): > 100 µM (inactive)
- GI50 (BT-549): > 100 µM (inactive)
- GI50 (SR): > 100 µM (inactive)
- GI50 (HCC 2998): > 100 µM (inactive)
- GI50 (MDA-MB-231): > 100 µM (inactive)
- GI50 (CCRF-CEM): > 100 µM (inactive)
- GI50 (UACC-257): > 100 µM (inactive)
- GI50 (NCI-H460): > 100 µM (inactive)
- GI50 (OVCAR-3): > 100 µM (inactive)
- GI50 (SF-268): > 100 µM (inactive)
- GI50 (MDA-N): > 100 µM (inactive)
- GI50 (RPMI-8226): > 100 µM (inactive)
- GI50 (SF-539): > 100 µM (inactive)
- GI50 (NCI-H522): > 100 µM (inactive)
- GI50 (SK-MEL-5): > 100 µM (inactive)
- GI50 (SNB-19): > 100 µM (inactive)
- GI50 (KM12): > 100 µM (inactive)
- GI50 (T47D): 83.8 µM (inactive)
- GI50 (MDA-MB-435): > 100 µM (inactive)
- GI50 (MOLT-4): > 100 µM (inactive)
- GI50 (LOX IMVI): > 100 µM (inactive)
- GI50 (COLO 205): > 100 µM (inactive)
- GI50 (SK-OV-3): > 100 µM (inactive)
- GI50 (DU-145): > 100 µM (inactive)
- GI50 (OVCAR-4): > 100 µM (inactive)
- GI50 (UACC-62): 80.7 µM (inactive)
- GI50 (OVCAR-8): > 100 µM (inactive)
- GI50 (K562): > 100 µM (inactive)
- GI50 (CAKI-1): > 100 µM (inactive)
- GI50 (Hs-578T): > 100 µM (inactive)
- GI50 (A549): > 100 µM (inactive)
- GI50 (SK-MEL-28): > 100 µM (inactive)
- GI50 (HOP-92): > 100 µM (inactive)
- GI50 (HCT-116): > 100 µM (inactive)
- GI50 (M14): > 100 µM (inactive)
- GI50 (NCI/ADR-RES): > 100 µM (inactive)
- GI50 (TK-10): > 100 µM (inactive)
- GI50 (SW-620): > 100 µM (inactive)
- GI50 (OVCAR-5): > 100 µM (inactive)
- GI50 (RXF 393): > 100 µM (inactive)
- GI50 (SN12C): > 100 µM (inactive)
- GI50 (U-251): > 100 µM (inactive)
- GI50 (HT-29): > 100 µM (inactive)
- GI50 (IGROV-1): > 100 µM (inactive)
- GI50 (SNB-75): > 100 µM (inactive)
- GI50 (HL-60): > 100 µM (inactive)
- GI50 (UO-31): > 100 µM (inactive)
- GI50 (SF-295): > 100 µM (inactive)
- GI50 (EKVX): > 100 µM (inactive)
- GI50 (SK-MEL-2): > 100 µM (inactive)
